Patent US10844044B2 (Vanderbilt University, priority 2018, dated 2020)

Target: WDR5 (Homo sapiens (Human), UniProt P61964)
Assay: TR-FRET binding assay (displacement of 10mer-Thr-FAM probe from WDR5)
Conditions: not given

Row | Ki | Compound
1 | 23 nM | COc1cccc(-c2cc(Cn3ccn(C)c3=N)cc(C(=O)NCc3ccc(Cl)c(Cl)c3)c2)n1 [Example 169, N-(3,4-Dichlorobenzyl)-3-((2-imino-3-methyl-2,3-dihydro-1H-imidazol-1-yl)methyl)-5-(6-methoxypyridin-2-yl)benzamide]
2 | 8.9 nM | COc1cc(CNC(=O)c2cc(Cn3ccn(C)c3=N)cc(-c3ccc(F)cc3C(N)=O)c2)cc(OC)c1 [Example 152, N3′-(3,5-dimethoxybenzyl)-4-fluoro-5′-((2-imino-3-methyl-2,3-dihydro-1H-imidazol-1-yl)methyl)-[1,1′-biphenyl]-2,3′-dicarboxamide]

Same assay, conditions: read-out: Ki for Inhibition of WDR5 by TR-FRET assay

Row | Compound | Ki
3 | Cc1cc([C@H](C)NC(=O)c2cc(Cn3ccn(C)c3=N)cc(OC(F)(F)F)c2)ccc1F [Example 170, (S)—N-(1-(4-Fluoro-3-methylphenyl)ethyl)-3-((2-imino-3-methyl-2,3-dihydro-1H-imidazol-1-yl)methyl)-5-(trifluoromethoxy)benzamide] | 0.22 nM
4 | Cc1cc([C@@H](NC(=O)c2cc(CN3CCSC3=N)cc(-c3cn(C)nc3C(F)(F)F)c2)C2CC2)ncc1F [Example 326, (S)—N-(Cyclopropyl(5-fluoro-4-methylpyridin-2-yl)methyl)-3-((2-iminothiazolidin-3-yl)methyl)-5-(1-methyl-3-(trifluoromethyl)-1H-pyrazol-4-yl)benzamide] | < 0.1 nM
5 | CCn1cc(-c2cc(CN3CCOC3=N)cc(C(=O)NCC3CCOCC3)c2)c(C(F)(F)F)n1 [Example 288, 3-(1-Ethyl-3-(trifluoromethyl)-1H-pyrazol-4-yl)-5-((2-iminooxazolidin-3-yl)methyl)-N-((tetrahydro-2H-pyran-4-yl)methyl)benzamide] | 8.7 nM
6 | Cc1cc([C@@H](NC(=O)c2cc(Cn3ccn(-c4ccccc4)c3=N)cc(-c3cccnc3C(F)(F)F)c2)C2CC2)ccc1F [Example 137, (S)—N-(Cyclopropyl(4-fluoro-3-methylphenyl)methyl)-3-((2-imino-3-phenyl-2,3-dihydro-1H-imidazol-1-yl)methyl)-5-(2-(trifluoromethyl)pyridin-3-yl)benzamide] | > 33 nM
7 | C[C@H](NC(=O)c1cc(Cn2ccn(C)c2=N)cc(-c2cccnc2C(F)(F)F)c1)c1ccc(F)c(Cl)c1 [Example 124, (S)—N-(1-(3-chloro-4-fluorophenyl)ethyl)-3-((2-imino-3-methyl-2,3-dihydro-1H-imidazol-1-yl)methyl)-5-(2-(trifluoromethyl)pyridin-3-yl)benzamide] | 1 nM

Same assay, conditions: read-out: Ki for Inhibition of WDR5 by TR-FRET assay; TR-FRET, 10mer-Thr-FAM probe, WDR5-His tag 2 nM, pH 7.0

Row | Compound | Ki
8 | COc1ccnc(CNC(=O)c2cc(Cn3ccn(C)c3=N)cc(-c3cccnc3C)c2)c1 [Example 43, 3-((2-Imino-3-methyl-2,3-dihydro-1H-imidazol-1-yl)methyl)-N-((4-methoxypyridin-2-yl)methyl)-5-(2-methylpyridin-3-yl)benzamide] | 8420 nM
9 | Cc1cc(CNC(=O)c2cc(Cn3ccn(C)c3=N)cc(-c3ccnn3C)c2)ccc1Cl [Example 17, N-(4-Chloro-3-methylbenzyl)-3-((2-imino-3-methyl-2,3-dihydro 1H-imidazol-1-yl)methyl)-5-(1-methyl-1H-pyrazol-5-yl)benzamide] | 0.94 nM
10 | Cn1ccn(Cc2cc(C(=O)NCc3ccc(Cl)c(Cl)c3)cc(-c3cccc4c3OC(F)(F)O4)c2)c1=N [Example 168, N-(3,4-Dichlorobenzyl)-3-(2,2-difluorobenzo[d][1,3]dioxol-4-yl)-5-((2-imino-3-methyl-2,3-dihydro-1H-imidazol-1-yl)methyl)benzamide] | 27 nM
11 | CC(C)n1cc(-c2cc(CN3CCSC3=N)cc(C(=O)N[C@H](c3ccc(F)c(F)c3)C3CC3)c2)c(C(F)(F)F)n1 [Example 319, (S)—N-(Cyclopropyl(3,4-difluorophenyl)methyl)-3-((2-iminothiazolidin-3-yl)methyl)-5-(1-isopropyl-3-(trifluoromethyl)-1H-pyrazol-4-yl)benzamide] | 0.32 nM
12 | C[C@H](NC(=O)c1cc(Cn2ccn(C)c2=N)cc(-c2cccnc2C(F)(F)F)c1)c1ncc(F)cn1 [Example 130, (S)—N-(1-(5-Fluoropyrimidin-2-yl)ethyl)-3-((2-imino-3-methyl-2,3-dihydro-1H-imidazol-1-yl)methyl)-5-(2-(trifluoromethyl)pyridin-3-yl)benzamide] | > 33 nM
13 | Cc1cc([C@@H](NC(=O)c2cc(Cn3ccn(C)c3=N)cc(N3CCCC3)c2)C2CC2)ncc1F [Example 208, (S)—N-(Cyclopropyl(5-fluoro-4-methylpyridin-2-yl)methyl)-3-((2-imino-3-methyl-2,3-dihydro-1H-imidazol-1-yl)methyl)-5-(pyrrolidin-1-yl)benzamide] | 0.59 nM
14 | Cc1cc(-c2cc(Cn3ccn(C)c3=N)cc(C(=O)NCc3ncc(Cl)cn3)c2)ccn1 [Example 51, N-((5-Chloropyrimidin-2-yl)methyl)-3-((2-imino-3-methyl-2,3-dihydro-1H-imidazol-1-yl)methyl)-5-(2-methylpyridin-4-yl)benzamide] | 17 nM
15 | Cc1ccnc(C(NC(=O)c2cc(Cn3ccn(C)c3=N)cc(-c3cccn3C)c2)C2CC2)c1 (centres unmarked) [Example 11, N-(Cyclopropyl(4-methylpyridin-2-yl)methyl)-3-((2-imino-3-methyl-2,3-dihydro-1H-imidazol-1-yl)methyl)-5-(1-methyl-1H-pyrrol-2-yl)benzamide] | 0.83 nM
16 | Cc1cc([C@@H](NC(=O)c2cc(CN3CCSC3=N)cc(-c3cn(CC(C)C)nc3C(F)(F)F)c2)C2CC2)ccc1F [Example 313, (S)—N-(Cyclopropyl(4-fluoro-3-methylphenyl)methyl)-3-((2-iminothiazolidin-3-yl)methyl)-5-(1-isobutyl-3-(trifluoromethyl)-1H-pyrazol-4-yl)benzamide] | 1.2 nM
17 | N=c1n(Cc2cc(C(=O)N[C@H](c3ccc(Cl)c(Cl)c3)C3CC3)cc(-c3ccc(F)cc3OC(F)F)c2)ccn1C1CC1 [Example 151, (S)—N-(Cyclopropyl(3,4-dichlorophenyl)methyl)-5-((3-cyclopropyl-2-imino-2,3-dihydro-1H-imidazol-1-yl)methyl)-2′-(difluoromethoxy)-4′-fluoro-[1,1′-biphenyl]-3-carboxamide] | 0.59 nM
18 | Cc1ccnc(C(NC(=O)c2cc(Cn3ccn(C)c3=N)cc(OC(F)(F)F)c2)C2CC2)c1 (centres unmarked) [Example 145, N-(Cyclopropyl(4-methylpyridin-2-yl)methyl)-3-((2-imino-3-methyl-2,3-dihydro-1H-imidazol-1-yl)methyl)-5-(trifluoromethoxy)benzamide] | 0.95 nM
19 | N=c1n(Cc2cc(C(=O)N[C@H](c3ccc(Cl)c(Cl)c3)C3CC3)cc(-c3cccnc3C(F)(F)F)c2)ccn1C1CC1 [Example 155, (S)—N-(Cyclopropyl(3,4-dichlorophenyl)methyl)-3-((3-cyclopropyl-2-imino-2,3-dihydro-1H-imidazol-1-yl)methyl)-5-(2-(trifluoromethyl)pyridin-3-yl)benzamide] | 1.4 nM
20 | COc1ccnc(CNC(=O)c2cc(Cn3ccn(C)c3=N)cc(-c3cc(C)cnc3OC)c2)c1 [Example 4, 3-((2-imino-3-methyl-2,3-dihydro-1H-imidazol-1-yl)methyl)-5-(2-methoxy-5-methylpyridin-3-yl)-N-((4-methoxypyridin-2-yl)methyl)benzamide] | 0.34 nM
21 | COc1cnccc1-c1cc(Cn2ccn(C)c2=N)cc(C(=O)NCc2ccc(Cl)c(C)c2)c1 [Example 20, N-(4-Chloro-3-methylbenzyl)-3-((2-imino-3-methyl-2,3-dihydro-1H-imidazol-1-yl)methyl)-5-(3-methoxypyridin-4-yl)benzamide] | 2.5 nM
22 | Cc1cc([C@@H](NC(=O)c2cc(Cn3ccn(C)c3=N)cc(-c3ccnc4c3CCC4)c2)C2CC2)ccc1F [Example 136, (S)—N-(Cyclopropyl(4-fluoro-3-methylphenyl)methyl)-3-(6,7-dihydro-5H-cyclopenta[b]pyridin-4-yl)-5-((2-imino-3-methyl-2,3-dihydro-1H-imidazol-1-yl)methyl)benzamide] | < 0.1 nM
23 | Cc1cc(CNC(=O)c2cc(Cn3ccn(C)c3=N)cc(-c3ccc(=O)[nH]c3C)c2)ccc1Cl [Example 80, N-(4-Chloro-3-methylbenzyl)-3-((2-imino-3-methyl-2,3-dihydro-1H-imidazol-1-yl)methyl)-5-(2-methyl-6-oxo-1,6-dihydropyridin-3-yl)benzamide] | 20 nM
24 | Cc1cc([C@@H](NC(=O)c2cc(CN3C[C@@H](C)OC3=N)cc(-c3cccnc3C(F)(F)F)c2)C2CC2)ccc1F [Example 297, N—((S)-cyclopropyl(4-fluoro-3-methylphenyl)methyl)-3-(((R)-2-imino-5-methyloxazolidin-3-yl)methyl)-5-(2-(trifluoromethyl)pyridin-3-yl)benzamide] | 2.3 nM
25 | Cc1cc([C@@H](NC(=O)c2cc(Cn3ccn(C)c3=N)cc(-c3cnc(F)cc3C)c2)C2CC2)ccc1F [Example 113, (S)—N-(Cyclopropyl(4-fluoro-3-methylphenyl)methyl)-3-(6-fluoro-4-methylpyridin-3-yl)-5-((2-imino-3-methyl-2,3-dihydro-1H-imidazol-1-yl)methyl)benzamide] | > 33 nM
26 | Cc1cc([C@@H](NC(=O)c2cc(Cn3cc(F)ccc3=N)cc(-c3cccnc3C(F)(F)F)c2)C2CC2)ccc1F [Example 354, (S)—N-(cyclopropyl(4-fluoro-3-methylphenyl)methyl)-3-((5-fluoro-2-iminopyridin-1(2H)-yl)methyl)-5-(2-(trifluoromethyl)pyridin-3-yl)benzamide] | < 0.1 nM
